Experimental data as given in patent US11130766B2, “Deuterated thienopiperidine derivatives, manufacturing method, and application thereof” (JIANGSU TASLY DIYI PHARMACEUTICAL CO., LTD., priority 2015, dated 2021).
Where two headings read alike, the source gives them in different places. Marks after values point to notes of the source that are not given here.

Key:
[1] = tested on: ADP induced platelet aggregation; assay: ADP induced platelet aggregation, maximum aggregation rate after administration to rats; type: in vivo, Wistar male rats; parameters: unit not given here; conditions: rat, in vivo, 3 mg/kg
Method: Addition of small dose of ADP (concentration less than 0.9 μmol/L) into the platelet suspension could lead to rapid platelet aggregation, followed by quick disaggregation; if moderate dose of ADP (about 1.0 μmol/L) was added, then the second irreversible aggregation phase appeared not long after the end of the first aggregation phase and the disaggregation. The maximum aggregation rate of the irreversible aggregation phase was used to evaluate the effect of the test samples on the function of blood coagulation.
Animals: Wistar male rats, weighing 230-250 g, were purchased from Vital River Laboratory Animal Technology Co., Ltd.
Reagent: ADP, Sigma Corporation.
Test samples: 16 test samples were provided by the Tasly Group; referred to China patent application 201310428052.4 for manufacturing method of TSC-1˜4 and TSC-6˜9.
Dose of administration: the test samples were suspended with 0.25% CMC, administered 3 mg/kg weight, volume of administration: 2 mL.
2 Hours after administration, the rats were anesthetized with pentobarbital sodium, and blood was drawn from the abdominal aorta, anticoagulated with sodium citrate with a ratio of 1:9, and centrifuged to obtain the platelet-rich plasma and platelet-poor plasma, with the mixed ratio of the platelet-poor plasma to platelet-rich plasma=3:1.

Rat Tail Bleeding Model = tested on: Rat Tail Bleeding Model
Method: genus, strain SD rat, • Provider: Slac • Weight: 250-350 g • Sex: male • Animal number: 30
Experimental Method: • The animals were allowed adapt to the environment after arrival for 1 week and fasted for 16 hours prior to the experiment. • The tail bleeding time started to be recorded 2 h after oral administration of the test compounds and 4 h after oral administration of clopidogrel. • The rats were anesthetized with pentobarbital sodium (50 mg/kg, ip) 10 min prior to the recording of the tail bleeding time, after the rat was completely anesthetized and reaching the detection time, the tail was cut at 1.3 mm from the rat tail-tip with a scissor and perpendicularly immerged into a saline at 37° C. Timing recording was not started until the blood flow appeared. • The timing recording was stopped when the bleeding time interval was longer than 20 seconds. The maximum observation time for the blood flow was set for 40 minutes. If it was longer than 40 minutes, the timing recording was stopped and the time was recorded as 40 minutes.

[2] = tested on: Rat Arteriovenous Thrombus Loop Model
From the text: genus, strain: SD rat, • Provider: Slac • Weight: 250-350 g • Sex: male • Animal number: 30
Apparatus and Materials • Swab, dry tampon, alcohol pad, anerdian tampon. • Surgical scissor, ophthalmic forceps, hemostatic forceps, microsurgical scissor, microsurgical forceps, artery clamps. • 3-0 surgical suture, thick PE tube (I.D.*O.D.=1.14 mm*1.63 mm, 8 cm long), think PE tube (I.D.*O.D.=0.72 mm*1.22 mm, 6 cm long). • Surgical board, binding rope, timer, precise electronic balance, weighing paper. • Syringe, normal saline.
7. Experimental Method • After arrival, the animals were let adapt to the environment for 1 week and fasted for 16 hours prior to the test. • The arteriovenous blood loop circulation was started 2 h after oral administration of the test compounds and 4 h after oral administration of clopidogrel. • The rats were anesthetized with pentobarbital sodium (50 mg/kg, ip) 15 min before the arteriovenous blood loop circulation was started. • The left external jugular vein and the right carotid artery were separated and inserted with thin PE tubes respectively. • Two PE tubes were connected with another thick PE tube with a length of 8 cm to form a circulation passage. There's a 6 cm surgical suture (3-0) in the thick PE tube. • 15 min after the circulation passage was opened, the blood flow was blocked, the filament was taken out and weighed after the blood was sucked out. The thrombus weight was obtained after subtraction of the weight of the filament itself.

esterase = conditions: for sample test results (concentration) Mean / sample test results (concentration) Num. 1 / sample test results (concentration) Num. 2 / sample test results (concentration) Num. 3: rat whole blood, 37° C., 30 μg/mL
Method: The hydrolysis rates of formula TSD-6 and clopidogrel bisulfate in the rat whole blood were determined by employing the in vitro incubation method.
3 mL of the rat fresh whole blood was taken and placed in a glass test tube. 30 μg/mL of formula TSD-6 and clopidogrel bisulfate (prepared with saline) were added, with 3 parallel tests for each group. The test tubes were shocked at a constant temperature of 37° C., 100 μL of the mixture was taken out at fixed time points of 10 min, 20 min, 30 min, 40 min, 50 min, 60 min, 70 min, 80 min, 90 min, 100 min, 110 min, and 120 min, into which 900 μL of methanol was added to stop the reaction immediately, then 100 μL methanol/water (1:1, v/v) and 100 μL internal standard (diazepam, 100 ng/mL) were added sequentially. The mixture was centrifuged at 13000 rpm at low temperature for 10 min, the supernatant was transferred into another EP tube, and 20 μL of the supernatant was taken for sample injection.

[3] = SD rat, 1.0 mg/kg oral gavage, 2 h after administration
[4] = SD rat, 1.0 mg/kg oral gavage, 2 h after administration, 15 min circulation

## COC(=O)[C@H](c1ccccc1Cl)N1CCc2sc(OP(=O)(O)O)cc2C1 [TSC-6]
[1]
  Maximum Platelet Aggregation Rate: 29.6 ± 5.33
Rat Tail Bleeding Model; [3]
  Tail Bleeding Time: 635 s
[2]; [4]
  Thrombus (mg): 31.4* mg

## [2H]C([2H])([2H])OC(=O)[C@H](c1ccccc1Cl)N1CCc2sc(OP(=O)(O)O)cc2C1 [TSD-6]
[1]
  Maximum Platelet Aggregation Rate: 17.4 ± 5.13
esterase; compared with clopidogrel, FIG. 2
  hydrolysis rate in the rat whole blood: significantly slower than that of clopidogrel
esterase; 10 min
  sample test results (concentration) Mean: 389.7
  sample test results (concentration) Num. 1: 486
  sample test results (concentration) Num. 2: 287
  sample test results (concentration) Num. 3: 396
esterase; 20 min
  sample test results (concentration) Mean: 315.3
  sample test results (concentration) Num. 1: 306
  sample test results (concentration) Num. 2: 345
  sample test results (concentration) Num. 3: 295
esterase; 30 min
  sample test results (concentration) Mean: 244.3
  sample test results (concentration) Num. 1: 246
  sample test results (concentration) Num. 2: 223
  sample test results (concentration) Num. 3: 264
esterase; 40 min
  sample test results (concentration) Mean: 217.7
  sample test results (concentration) Num. 1: 232
  sample test results (concentration) Num. 2: 213
  sample test results (concentration) Num. 3: 208
esterase; 50 min
  sample test results (concentration) Mean: 172.0
  sample test results (concentration) Num. 1: 196
  sample test results (concentration) Num. 2: 153
  sample test results (concentration) Num. 3: 167
esterase; 60 min
  sample test results (concentration) Mean: 132.3
  sample test results (concentration) Num. 1: 115
  sample test results (concentration) Num. 2: 134
  sample test results (concentration) Num. 3: 148
esterase; 90 min
  sample test results (concentration) Mean: 97.50
  sample test results (concentration) Num. 1: 85.3
  sample test results (concentration) Num. 2: 112
  sample test results (concentration) Num. 3: 95.2
esterase; 100 min
  sample test results (concentration) Mean: 72.57
  sample test results (concentration) Num. 1: 84.7
  sample test results (concentration) Num. 2: 71.8
  sample test results (concentration) Num. 3: 61.2
esterase; 110 min
  sample test results (concentration) Mean: 54.63
  sample test results (concentration) Num. 1: 48.1
  sample test results (concentration) Num. 2: 59.1
  sample test results (concentration) Num. 3: 56.7
esterase; 120 min
  sample test results (concentration) Mean: 25.83
  sample test results (concentration) Num. 1: 24.5
  sample test results (concentration) Num. 2: 28.4
  sample test results (concentration) Num. 3: 24.6
Rat Tail Bleeding Model; [3]
  Tail Bleeding Time (s): 1331* s
Rat Tail Bleeding Model; rat tail bleeding model, 1 mg/kg oral
  anticoagulant effect (tail bleeding time): much better than that of the non-deuterated compound TSC-6 and analog I-1
[2]; [4]
  Thrombus (mg): 18.4* mg
[2]; rat arteriovenous thrombus loop model, 1 mg/kg oral
  weight of the thrombus formed: much lower than that of the non-deuterated compound TSC-6 and analog I-1

## [2H]C([2H])([2H])OC(=O)[C@H](c1ccccc1Cl)N1CCc2sc(OC(C)=O)cc2C1 [I-1]
Rat Tail Bleeding Model; [3]
  Tail Bleeding Time: 950 s
[2]; [4]
  Thrombus: 25.6 mg
